In US20230167088A1, “1-PYRAZINYLPYRAZOLYL-3-OXYALKYL ACIDS AND THEIR DERIVATIVES, AND THEIR USE FOR CONTROL OF UNDESIRED PLANT GROWTH” (BAYER AKTIENGESELLSCHAFT, priority 2020, published 2023):

What was measured:
STEME [1] = assay: Herbicidal pre-emergence action 2a (greenhouse pots, visual scoring); assay type: in vivo, Stellaria media; details: dosage 320 g/ha, visual scoring after about 3 weeks vs untreated controls
From the text: (§1) [table] a) Seeds of monocotyledonous and dicotyledonous weed plants and crop plants are placed in plastic or organic plant pots and covered with soil. The compounds of the invention, formulated in the form of wettable powders (WP) or as emulsion concentrates (EC), are then applied onto the surface of the covering soil as aqueous suspension or emulsion with addition of 0.5% additive at a water application rate of 600 1/ha (converted). After the treatment, the pots are placed in a greenhouse and kept under good growth conditions for the trial plants. After about 3 weeks, the effect of the preparations is scored visually in comparison with untreated controls as percentages. For example, 100% activity=the plants have died, 0% activity=like control plants. Tables B1 to B15 below show the effects of selected compounds of the general formula (I) according to Tables 1 and 2 on various harmful plants and an application rate corresponding to 320 g/ha and/or 80 g/ha, which were obtained by the experimental procedure mentioned above.

AVEFA = assay: as above; assay type: in vivo, Avena fatua; details: dosage 320 g/ha, visual scoring after about 3 weeks
Summary of the method: (§2)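 Dose levels were 320 g/ha and/or 80 g/ha, delivered as an aqueous spray of wettable powder or emulsion concentrate plus 0.5% additive onto soil over sown seeds. Plants grew under good greenhouse conditions for about 3 weeks before visual percentage rating versus untreated pots.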

STEME [2] = assay: Herbicidal post-emergence action 1a (greenhouse pots, visual rating); assay type: in vivo, Stellaria media; details: rated visually about 3 weeks after treatment, 100% = plants have died, 0% = like control plants
Summary of the method: (§3)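 Visual scoring versus untreated plants (100% = plants dead, 0% = as control) followed roughly 3 weeks in the greenhouse after treatment. Plants grown in sandy loam pots had been sprayed on green parts at the one-leaf stage, 2–3 weeks post-sowing, with aqueous WP/EC preparations containing 0.5% additive, 600 l/ha, at 320 and/or 80 g/ha.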

ABUTH [3] = assay: as above; assay type: in vivo, Abutilon theophrasti; details: visual rating about 3 weeks after treatment
Summary of the method: as §3

POLCO = assay: as above; assay type: in vivo, Polygonum convolvulus; details: visual rating about 3 weeks after treatment
Summary of the method: as §3

HORMU [4] = assay: Herbicidal pre-emergence action 2a (greenhouse pots, visual scoring); assay type: in vivo, Hordeum murinum; details: dosage 320 g/ha, visual scoring after about 3 weeks vs untreated controls
From the text: as §1

HORMU [5] = assay: Herbicidal post-emergence action 1a (greenhouse pots, visual rating); assay type: in vivo, Hordeum murinum; details: rated visually about 3 weeks after treatment, 100% = plants have died, 0% = like control plants
Method: [table] a) Seeds of monocotyledonous and dicotyledonous weeds and crop plants are placed in sandy loam in plastic or organic plant pots, covered with soil and cultivated in a greenhouse under controlled growth conditions. 2 to 3 weeks after sowing, the test plants are treated at the one-leaf stage. The compounds of the invention, formulated in the form of wettable powders (WP) or as emulsion concentrates (EC), are then sprayed onto the green parts of the plants as aqueous suspension or emulsion with addition of 0.5% additive at a water application rate of 600 1/ha (converted). After the test plants have been kept in the greenhouse under optimum growth conditions for about 3 weeks, the activity of the preparations is rated visually in comparison to untreated controls. For example, 100% activity=the plants have died, 0% activity=like control plants. Tables A1 to A15 below show the effects of selected compounds of the general formula (I) according to Tables 1 and 2 on various harmful plants and an application rate corresponding to 320 g/ha and/or 80 g/ha, which were obtained by the experimental procedure mentioned above.

MATIN [6] = assay: as above; assay type: in vivo, Matricaria inodora; details: visual rating about 3 weeks after treatment
Summary of the method: as §3

SETVI = assay: Herbicidal pre-emergence action 2a (greenhouse pots, visual scoring); assay type: in vivo, Setaria viridis; details: dosage 320 g/ha, visual scoring after about 3 weeks vs untreated controls
Summary of the method: as §2

ALOMY = assay: as above; assay type: in vivo, Alopecurus myosuroides; details: dosage 320 g/ha, visual scoring after about 3 weeks
Summary of the method: as §2

PHBPU = assay: as above; assay type: in vivo, Pharbitis purpurea; details: dosage 320 g/ha, visual scoring after about 3 weeks vs untreated controls
Summary of the method: as §2

MATIN [7] = assay: as above; assay type: in vivo, Matricaria inodora; details: dosage 320 g/ha, visual scoring after about 3 weeks vs untreated controls
Summary of the method: as §2

DIGSA [8] = assay: Herbicidal pre-emergence action 2b (doubly sown, 1280 g/ha); assay type: in vivo, Digitaria sanguinalis; details: doubly sown pots, dosage 1280 g/ha, visual scoring after about 3 weeks
Summary of the method: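 Compounds were sprayed pre-emergence as wettable powders or emulsion concentrates onto soil covering freshly sown weed seeds, two species per pot. Percent activity was judged by eye roughly 3 weeks later versus untreated plants.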

ABUTH [9] = assay: Herbicidal pre-emergence action 2a (greenhouse pots, visual scoring); assay type: in vivo, Abutilon theophrasti; details: dosage 320 g/ha, visual scoring after about 3 weeks vs untreated controls
Summary of the method: as §2

ABUTH [10] = assay: Herbicidal post-emergence action 1b (twin sowing, 1280 g/ha); assay type: in vivo, Abutilon theophrasti; details: dosage 1280 g/ha, visual rating about 3 weeks after treatment
Summary of the method: (§4)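 Greenhouse weed pairs (mono- with dicotyledonous) were treated 2–3 weeks after sowing, at one leaf, using an aqueous spray at 600 L/ha carrying 0.5% additive. Percent activity, judged by eye against untreated plants, was recorded roughly 3 weeks post-application.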

DIGSA [11] = assay: as above; assay type: in vivo, Digitaria sanguinalis; details: dosage 1280 g/ha, visual rating about 3 weeks after treatment
Summary of the method: as §4

Structure (SMILES) | Pre-emergence action against STEME in % (STEME [1]) | Pre-emergence action against AVEFA in % (AVEFA) | Post-emergence action against STEME in % (STEME [2]; Dosage 80 g/ha) | Post-emergence action against STEME in % (STEME [2]; Dosage 320 g/ha) | Post-emergence action against ABUTH in % (ABUTH [3]; dosage 320 g/ha) | Post-emergence action against POLCO in % (POLCO; dosage 320 g/ha) | Pre-emergence action against HORMU in % (HORMU [4]) | Post-emergence action against HORMU in % (HORMU [5]; Dosage 80 g/ha) | Post-emergence action against HORMU in % (HORMU [5]; Dosage 320 g/ha) | Post-emergence action against MATIN in % (MATIN [6]; dosage 320 g/ha) | Pre-emergence action against SETVI in % (SETVI) | Pre-emergence action against ALOMY in % (ALOMY) | Pre-emergence action against PHBPU in % (PHBPU) | Post-emergence action against POLCO in % (POLCO; dosage 80 g/ha) | Post-emergence action against MATIN in % (MATIN [6]; dosage 80 g/ha) | Pre-emergence action against MATIN in % (MATIN [7]) | Pre-emergence action against ABUTH in % (ABUTH [9]) | Post-emergence action at 1280 g/ha against ABUTH in % (ABUTH [10]) | other results
COC(=O)C(C)Oc1nn(-c2cnccn2)c(-c2ccc(F)nc2)c1Br (racemic) [Example I-12] | 90% | 90% | 80% | 90% | 80% | 90% | 90% | 90% | 90% | 80% | 100% | 100% |  |  |  |  |  |  | 
COC(=O)COc1nn(-c2cnccn2)c(-c2cncc(F)c2)c1Br [Example I-07] | 100% | 90% | 90% | 90% | 90% | 90% | 90% | 80% | 90% | 90% | 100% | 100% | 90% | 80% | 90% | 90% |  |  | Post-emergence action against ABUTH in % (ABUTH [3]; dosage 80 g/ha): 80%
C[C@@H](Oc1nn(-c2cnccn2)c(-c2cccc(F)c2)c1Br)C(=O)O [Example I-48] |  | 90% |  |  |  | 100% |  |  |  |  | 100% | 100% | 90% |  |  | 100% | 100% | 90% | Pre-emergence action at 1280 g/ha against DIGSA in % (DIGSA [8]): 100%
COC(=O)C(C)Oc1nn(-c2cnccn2)c(-c2ccnc(F)c2)c1Br (racemic) [Example I-10] |  | 90% |  | 90% |  |  | 80% | 80% | 80% |  | 100% | 100% |  |  |  |  |  |  | 
COC(=O)C(C)Oc1nn(-c2cnccn2)c(-c2ccnc(F)c2)c1Cl (racemic) [Example I-05] | 100% | 80% |  | 80% | 80% |  | 90% |  | 90% |  | 90% | 100% | 80% | 80% |  |  |  | 90% | 
COC(=O)C(C)Oc1nn(-c2cnccn2)c(-c2cncc(F)c2)c1Br (racemic) [Example I-08] | 100% | 90% | 90% | 90% | 90% | 100% | 100% | 80% | 90% | 90% | 100% | 100% | 90% |  | 80% | 90% | 80% |  | Post-emergence action against ABUTH in % (ABUTH [3]; dosage 80 g/ha): 80%
CCOC(=O)COc1nn(-c2cnccn2)c(-c2ccccc2)c1Br [Example I-01] | 80% |  |  | 90% | 80% | 80% |  |  |  | 90% |  | 80% |  | 80% | 80% | 90% |  |  | 
COC(=O)[C@@H](C)Oc1nn(-c2cnccn2)c(-c2ccc(F)c(F)c2)c1C#N [Example I-46] |  | 90% |  |  |  | 100% |  |  |  | 80% | 100% | 100% |  |  |  | 100% | 80% | 90% | Post-emergence action at 1280 g/ha against DIGSA in % (DIGSA [11]): 100%; Pre-emergence action at 1280 g/ha against DIGSA in % (DIGSA [8]): 100%
